From US12611387B2, “Compound and composition for inducing neuroprotection” (REST THERAPEUTICS, priority 2020, dated 2026)

How the values were obtained:
IL-6 = IL-6 ELISA in hippocampus, Aβ25-35 oligomer neuroprotection design; format: in vivo; conditions: 0.3 mg/Kg i.p., compared to intoxicated but untreated mice
Experimental: (§1) The neuroprotective effect of the compounds, i.e. the ability thereof to protect cells from Aβ25-35 oligomer neurotoxicity and neurodegeneration, is also tested (FIG. 10). The test compounds are thus administered on the same day as the injection of the Aβ25-35 oligomers and are continued to be administered on a daily basis up to day 7 after the injection of the oligomers, at which time the mice are subjected to the YMT, PAT, MWT or ORT. The brain's anatomy is analysed and neuronal cells are counted by immunohistochemistry on mice sacrificed at D13. The biochemical analyses for the quantification of markers of oxidative stress and apoptosis were carried out at D16 on a group of mice that had been subjected to the WMT (FIG. 10).
Their brains were removed, and the hippocampi were isolated, weighed and frozen at −80° C. awaiting biochemical analysis.
Interleukin 6 (IL-6), a cytokine inflammatory marker, and the levels of the apoptosis markers Bcl2 and Bax proteins were measured in mouse hippocampi by the ELISA tests listed in Table 1 hereinbelow. Bcl2 is often referred to as an anti-apoptotic marker and Bax as a pro-apoptotic marker. […] After centrifugation (10,000 g, 5 min, 4° C.), the supernatants containing the markers to be measured were aliquoted and stored at −80° C. until the ELISA test was carried out according to the supplier's instructions. […]

[1] = tested on: Aβ25-35 oligomer-intoxicated mice; experiment: Passive avoidance test, neuroprotection design; format: in vivo; conditions: doses 0.03; 0.1; 0.3; 1.0 and 3 mg/Kg i.p., neuroprotection design (not shown)
Experimental: as §1
This test measures non-spatial (contextual) long-term memory. The apparatus used for this test was a box with two compartments (15×20×15 cm high), one illuminated with white PVC walls and the other in the dark with black PVC walls and a grid floor. A guillotine door separated the compartments. A 60 W lamp was positioned 40 cm above the box and illuminated the white compartment. […] The time taken by the mouse to re-enter the darkened compartment (STL-Tg) and the number of vocalizations were recorded. […] After 5 s the door was raised, the step-through latency (STL-R), i.e. the time it took the mouse to enter the darkened compartment, was measured. […]

non-intoxicated mice [2] = experiment: Y-maze, amnestic effect in non-intoxicated mice; format: in vivo; conditions: 10 mg/Kg i.p.
Experimental: The spontaneous alternation test was used to assess spatial working memory (very short-term memory) in rodents. The maze was made of grey opaque polyvinylchloride (PVC). Each arm was 40 cm long, 13 cm high, 3 cm wide at the bottom, and 10 cm wide at the top. The arms converged towards one another at an equal angle between the different arms. In brief, each mouse was placed at the end of one arm and allowed to move freely during an 8 min session. The mouse's entries into each arm, including the arm at whose end it was placed, are recorded. An alternation is defined as the animal's successive entry into three different arms. The number of maximum alternations is thus the total number of entries into each arm minus 2 and the percentage of alternation was calculated according to the formula: % Alt=number of actual alternations/maximum number of alterations×100
The parameters measured included the percentage of alternations (memory index) and the total number of entries into the arms of the maze (exploration index, Maurice et al., 1994, 1996; Meunier et al., 2006, 2013; Villard et al., 2009, 2011). Data from the animals showing extreme behaviour (percentage of alternation <25% or >90%, or a number of entries less than 10) were excluded from the calculations. The attrition rate was routinely 5%. Under normal conditions, a mouse will spontaneously alternate exploring each of the arms. A mouse with impaired memory and/or orientation abilities will have a lower percentage of alternations.
In this experiment, memantine and FENM were administered at a dose of 10 mg/Kg i.p. and the performance of the mice was tested using the passive avoidance test and the Y-maze with non-intoxicated mice.

non-intoxicated mice [3] = experiment: Passive avoidance test, amnestic effect in non-intoxicated mice; format: in vivo; conditions: 10 mg/Kg i.p.
Text: (§2) This test measures non-spatial (contextual) long-term memory. The apparatus used for this test was a box with two compartments (15×20×15 cm high), one illuminated with white PVC walls and the other in the dark with black PVC walls and a grid floor. A guillotine door separated the compartments. A 60 W lamp was positioned 40 cm above the box and illuminated the white compartment. Electric shocks (0.3 mA for 3 s) could be delivered to the grid floor using a generator (Lafayette Instruments, Lafayette, USA). The test comprised a training session and a test session. The guillotine door was closed during the training session. Each mouse was placed in the white compartment. After 5 seconds, the door was raised. When the mouse entered the darkened compartment and placed all four feet in contact with the grid floor, the door was closed and the electric shocks were delivered for 3 seconds. The time taken by the mouse to re-enter the darkened compartment (STL-Tg) and the number of vocalizations were recorded. The test session was conducted 24 hours after the training session. Each mouse was placed back into the illuminated white compartment. After 5 s the door was raised, the step-through latency (STL-R), i.e. the time it took the mouse to enter the darkened compartment, was measured. The maximum duration was 300 s. Mice with a STL-Tg>30 s or a STL-Tg and a STL-R<10 s were not considered for the test. […]

[4] = tested on: Aβ25-35 oligomer-intoxicated mice; experiment: Passive avoidance test, symptomatic treatment; format: in vivo; conditions: symptomatic design; for improvement in cognitive impairment in the passive avoidance test, effective doses: doses 0.1, 0.3, 1.0, 3 and 10 mg/Kg i.p.; for aggravating effect on amnestic symptoms in the passive avoidance test: intoxicated mice, memantine at 10 mg/Kg
Experimental: The test compounds were tested for their ability to decrease the cognitive symptoms of Aβ25-35 oligomer-induced neurodegeneration, i.e. their ability to provide symptomatic anti-amnestic treatment (FIGS. 1A and 1B). In brief, to test the symptomatic effect of the test compounds, they were administered 8 days after the icy injection of the Aβ25-35 oligomers, 30 minutes before the YMT and PAT memory tests were conducted or 30 minutes before the test, but after the training session, in the case of the MWT or ORT (FIG. 1A). The Hamlet Test® (FIG. 1B) involves a 2-week training session (4 hr/day) followed by a test (max. 10 min) under water deprivation conditions and under normal conditions; the Aβ25-35 peptide is injected after this first test. After one week, the compounds are administered and a second test under water deprivation conditions and under normal conditions is performed 30 min after injection. This test measures spatial-temporal disorientation, a major warning sign in Alzheimer's disease (Crouzier et al., 2018).
as §2, with “test. The attrition rate was routinely 5% (Meunier et al., 2006, 2013; Villard et al., 2009, 2011). A mouse with impaired memory abilities will have a lower STL-R than a mouse with normal abilities.” for “test.”

NMDA receptors = conditions: described in WO 2014/191424; cited from earlier work

| SMILES | IL-6 level in the hippocampus (IL-6) | protective effect on latency in the passive avoidance test, effective doses [1] | Alternation (%) (non-intoxicated mice [2]) | Number of entries (non-intoxicated mice [2]) | Latency (non-intoxicated mice [3]) [s] | improvement in cognitive impairment in the passive avoidance test, effective doses [4] | aggravating effect on amnestic symptoms in the passive avoidance test [4] | affinity for NMDA receptors (NMDA receptors) |
| --- | --- | --- | --- | --- | --- | --- | --- | --- |
| NC12CC3CC(C1)CC(CCF)(C3)C2 [FENM, 3-(2-fluoroethyl)adamantan-1-amine] | significantly lower than that of untreated, intoxicated mice | procured neuroprotection as regards memory for all doses tested from 0.1 mg/Kg i.p. up to and including 3 mg/Kg | 63.7 ± 4.2 | 32.7 ± 3.4 | 183.0 ± 38.4 | effective at 0.1; 0.3 and 1 mg/Kg | does not exert an aggravating effect on amnestic symptoms | of an order of magnitude that is similar to that of memantine |
| CC12CC3CC(C)(C1)CC(N)(C3)C2 [memantine, 3,5-Dimethyl-1-adamantanamine, reference compound] | did not result in a significant decrease in IL-6 levels | only observed at two of the doses tested (0.1 and 1 mg/Kg i.p.) | 48.8 ± 3.0 | 28.2 ± 2.9 | 56.0 ± 31.1 | significant improvement in cognitive impairment by memantine was observed at the 0.3 mg/Kg memantine dose only | worsens the cognitive symptoms of intoxicated mice when injected at 10 mg/Kg | – |
